Data as given in patent publication US12227494B2, “Polymorphisms of HM30181 mesylate” (ATHENEX R&D, LLC, priority 2020, dated 2025).

Columns and labels:
Format in all cases: physicochemical
[1] = 1H-NMR check for disproportionation or degradation; details: slurry in DMF at 150° C., 5 days
Excerpt: At large scale, a slurry of HM30181 mesylate Type A starting material in methanol at ambient conditions generated a mixture of HM30181 mesylate Type B and HM30181 mesylate Type A after 9 days (see FIG. 32). After 14 days, the slurry in methanol generated a HM30181 mesylate Type N polymorph. […] A scaled-up slurry of HM30181 mesylate Type A starting material in DMA yielded HM30181 mesylate Type E after 6 days (see FIG. 35). […] A scaled-up slurry of HM30181 mesylate Type A starting material in DMF at 50° C. yielded HM30181 mesylate Type F rather than the expected HM30181 mesylate Type G after 9 days (see FIG. 36). […] This slurry was heated in an attempt to generate HM30181 mesylate Type G. A scaled-up slurry of HM30181 mesylate Type A starting material in DMF at 100° C. yielded HM30181 mesylate Type F after 2 days (see FIG. 37). A scaled-up slurry of HM30181 mesylate Type A starting material in DMF at 150° C. yielded a previously unobserved XRPD pattern after 5 days (see FIG. 37).
By 1H-NMR, HM30181 mesylate Type E contained DMA, HM30181 mesylate Type F contains DMF, and HM30181 mesylate Type N contains MeOH.
(§1) Proton NMR were obtained using a Varian 200M™ NMR in deuterated DMSO (DMSO-d6).

[2] = Estimated solubility of HM30181 mesylate Type A starting material in solvents (stepwise solvent addition); details: for solubility: thermodynamic from solid
[3] = XRPD of polymorphs after air-drying or vacuum-drying (solid form stability)
Procedure: Large scale studies were performed with HM30181 mesylate Type A starting material on a 200 mg scale as described below. Solids were isolated by vacuum filtration. The wet cakes from filtration from DMA, DMF, and NMP slurries were washed with 1 mL to 2 mL methanol to remove solvents. […]
(§2) XRPD was performed using a Panalytical X'Pert3™ Powder XRPD and on a Si zero-background holder. The 2θ position was calibrated against a Panalytical™ 640 Si powder standard. Details of XRPD used in the experiments are listed below in Table 20.

[4] = Dynamic Vapor Sorption (DVS) with XRPD post-DVS; details: for Hygroscopicity by DVS (in words) / Water absorbed by DVS: 0-95% RH
Procedure: as §2
Dynamic Vapor Sorption (DVS) was measured using a SMS (Surface Measurement Systems™) DVS Intrinsic. Parameters for DVS test are listed below in Table 24.

[5] = Cyclic DSC heating followed by XRPD / 1H-NMR (thermal stability of solid form)
Procedure: Based on ^1H-NMR data, decomposition of Type A initiated after heating to 200° C. (see FIG. 14).
as §2
In some studies, a cyclic DSC method was used. In such cycling DSC methods temperature was ramped from ambient to 150° C. at a heating rate of 10° C./min using N2 as the purge gas, then cooled by 10° C. to 25° C. This temperature cycle repeated twice (see Table 22).
as §1

## COc1cc2c(cc1OC)CN(CCc1ccc(-n3nnc(-c4cc(OC)c(OC)cc4NC(=O)c4cc(=O)c5ccccc5o4)n3)cc1)CC2.CS(=O)(=O)O [HM30181 mesylate Type A, HM30181 mesylate]
[1]
  Chemical stability in DMF slurry by 1H-NMR: resulted in degradation
[2]; organic solvent or mixture, solvent 1,4-Dioxane
  solubility: < 1000 µg/mL
[2]; organic solvent or mixture, solvent 2-MeTHF
  solubility: < 1000 µg/mL
[2]; organic solvent or mixture, solvent ACN
  solubility: < 1000 µg/mL
[2]; organic solvent or mixture, solvent Acetone
  solubility: < 1000 µg/mL
[2]; organic solvent or mixture, solvent CHCl3
  solubility: 5000 to 6700 µg/mL
[2]; organic solvent or mixture, solvent Cumene
  solubility: < 1000 µg/mL
[2]; organic solvent or mixture, solvent Cyclohexane
  solubility: < 1000 µg/mL
[2]; organic solvent or mixture, solvent DCM
  solubility: < 1000 µg/mL
[2]; organic solvent or mixture, solvent DMA
  solubility: 3200 to 4800 µg/mL
[2]; organic solvent or mixture, solvent DMSO
  solubility: 22000 to 44000 µg/mL
[2]; organic solvent or mixture, solvent EtOAc
  solubility: < 900 µg/mL
[2]; organic solvent or mixture, solvent EtOH
  solubility: < 900 µg/mL
[2]; organic solvent or mixture, solvent IPA
  solubility: < 1000 µg/mL
[2]; organic solvent or mixture, solvent IPOAc
  solubility: < 1000 µg/mL
[2]; organic solvent or mixture, solvent MEK
  solubility: < 1000 µg/mL
[2]; organic solvent or mixture, solvent MIBK
  solubility: < 1000 µg/mL
[2]; organic solvent or mixture, solvent MTBE
  solubility: < 1000 µg/mL
[2]; organic solvent or mixture, solvent MeOH
  solubility: 1700 to 2000 µg/mL
[2]; organic solvent or mixture, solvent NMP
  solubility: 4800 to 6300 µg/mL
[2]; organic solvent or mixture, solvent T-BuOH
  solubility: < 1000 µg/mL
[2]; organic solvent or mixture, solvent THF
  solubility: < 1000 µg/mL
[2]; organic solvent or mixture, solvent Toluene
  solubility: < 1000 µg/mL
[2]; organic solvent or mixture, solvent n-Heptane
  solubility: < 1000 µg/mL
[2]; organic solvent or mixture, solvent n-Propanol
  solubility: < 1000 µg/mL
[2]; organic solvent or mixture, solvent n-Propyl acetate
  solubility: < 1000 µg/mL
[2]; solvent 1,4-Dioxane
  Dissolved after heating to 50° C. for 2 hours?: No
[2]; solvent 2-MeTHF
  Dissolved after heating to 50° C. for 2 hours?: No
[2]; solvent ACN
  Dissolved after heating to 50° C. for 2 hours?: Yes
[2]; solvent Acetone
  Dissolved after heating to 50° C. for 2 hours?: No
[2]; solvent Cumene
  Dissolved after heating to 50° C. for 2 hours?: No
[2]; solvent Cyclohexane
  Dissolved after heating to 50° C. for 2 hours?: No
[2]; solvent DCM
  Dissolved after heating to 50° C. for 2 hours?: Yes
[2]; solvent EtOAc
  Dissolved after heating to 50° C. for 2 hours?: No
[2]; solvent EtOH
  Dissolved after heating to 50° C. for 2 hours?: Almost
[2]; solvent H2O
  Dissolved after heating to 50° C. for 2 hours?: No
[2]; solvent IPA
  Dissolved after heating to 50° C. for 2 hours?: No
[2]; solvent IPOAc
  Dissolved after heating to 50° C. for 2 hours?: No
[2]; solvent MEK
  Dissolved after heating to 50° C. for 2 hours?: No
[2]; solvent MIBK
  Dissolved after heating to 50° C. for 2 hours?: No
[2]; solvent MTBE
  Dissolved after heating to 50° C. for 2 hours?: No
[2]; solvent T-BuOH
  Dissolved after heating to 50° C. for 2 hours?: No
[2]; solvent THF
  Dissolved after heating to 50° C. for 2 hours?: No
[2]; solvent Toluene
  Dissolved after heating to 50° C. for 2 hours?: No
[2]; solvent n-Heptane
  Dissolved after heating to 50° C. for 2 hours?: No
[2]; solvent n-Propanol
  Dissolved after heating to 50° C. for 2 hours?: No
[2]; solvent n-Propyl acetate
  Dissolved after heating to 50° C. for 2 hours?: No
[2]; water, solvent H2O
  solubility: < 1000 µg/mL
[3]; air-dried solids from Crash cooling 50° C.-->−20° C., ACN 10 mL, Exp. 6007235-17-C12
  XRPD (air-dry): Type C
[3]; air-dried solids from Slow Cooling 50° C.-->4° C., ACN 10 mL, Exp. 6007235-17-C4
  XRPD (air-dry): Type C
[3]; air-dried solids from Slow Cooling 50° C.-->4° C., DCM 10 mL, Exp. 6007235-17-C5
  XRPD (air-dry): Type C
[4]
  Hygroscopicity by DVS (in words): hygroscopic
  Water absorbed by DVS: 2.26%
[4]; listed as Type A
  Hygroscopicity by DVS (in words): Monohydrate (hygroscopic
  Water absorbed by DVS: to 2.26% at 95% RH)
[4]; after DVS 0-95% RH
  XRPD pattern post-DVS: no change in XRPD pattern observed
[5]; 1H-NMR of heated sample
  Heating temperature after which decomposition initiated (1H-NMR): 200 °C
[5]; heated to 110° C.
  XRPD after cyclic DSC: no XRPD change
[5]; heated to 185° C.
  XRPD after cyclic DSC: reduced crystallinity
[5]; heated to 200° C.
  XRPD after cyclic DSC: amorphous material
